Among the data in patent US8173672B2, “Quinolizidinone M1 receptor positive allosteric modulators” (Merck Sharp & Dohme Corp., priority 2008, dated 2012) are EC50 values, retold here.

Each structure is given as a SMILES string.

This assay addresses T1, acetylcholine muscarinic M1 receptor (Homo sapiens, UniProt P11229).
T1 construct: expressed in transfected cells; host or cells: CHOnfat (CHO cells; also called CHOK1/hM1), selected with Geneticin
T1 sequence (P11229 1-460): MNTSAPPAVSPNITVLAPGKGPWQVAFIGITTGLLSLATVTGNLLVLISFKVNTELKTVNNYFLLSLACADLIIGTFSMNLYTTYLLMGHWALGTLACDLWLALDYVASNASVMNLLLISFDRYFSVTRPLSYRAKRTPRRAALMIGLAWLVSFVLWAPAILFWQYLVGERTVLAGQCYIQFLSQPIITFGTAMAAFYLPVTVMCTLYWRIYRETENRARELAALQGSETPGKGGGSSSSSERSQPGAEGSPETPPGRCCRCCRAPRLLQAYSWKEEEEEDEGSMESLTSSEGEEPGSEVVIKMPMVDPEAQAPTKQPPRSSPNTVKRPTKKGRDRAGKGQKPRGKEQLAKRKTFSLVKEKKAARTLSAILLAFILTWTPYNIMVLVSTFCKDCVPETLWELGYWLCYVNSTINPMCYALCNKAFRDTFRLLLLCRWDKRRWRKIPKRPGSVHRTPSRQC
Description: muscarinic FLIPR assay: potentiation of acetylcholine (EC20)-stimulated intracellular calcium in CHOnfat/hM1 cells. The format is cell-based. To be noted: 4 min preincubation, then EC20 acetylcholine (3 nM final), read-out: IP Value (inflection point). How it is done:
The assay studies the effect of one or several concentrations of test compounds on basal or acetylcholine-stimulated Ca^2+ levels using FLIPR.
Compounds are prepared and subjected to a preincubation period of 4 min. Thereafter, a single EC20 concentration of acetylcholine is added to each well (3 nM final). The intracellular Ca^2+ level of each sample is measured and compared to an acetylcholine control to determine any modulatory activity.
Cells: CHOnfat/hM1, hM2, hM3 or hM4 cells are plated 24 hr before the assay at a density of 18,000 cells/well (100 μL) in a 384 well plate. CHOnfat/hM1 and CHOnfat/hM3 Growth Medium: 90% DMEM (Hi Glucose); 10% HI FBS; 2 mM L-glutamine; 0.1 mM NEAA; Pen-Strep; and 1 mg/ml Geneticin, are added. For M2Gqi5CHOnfat and M4Gqi5CHOnfat cells, an additional 600 μg/ml hygromycin is added.
Equipment: 384 well plate, 120 μL addition plate; 96-well Whatman 2 ml Uniplate Incubator, 37° C., 5% CO2; Skatron EMBLA-384 Plate Washer; Multimek Pipetting System; Genesis Freedom 200 System; Mosquito System; Temo Nanolitre Pipetting System; and FLIPR^384 Fluorometric Imaging Plate Reader System are used.
Buffers. Assay Buffer: Hanks Balanced Salt Solution, with 20 mM Hepes, 2.5 mM Probenecid (Sigma P-8761) first dissolved in 1N aqueous NaOH, 1% Bovine Serum Albumin (Sigma A-9647). Dye Loading Buffer: Assay Buffer plus 1% Fetal Bovine Serum and Fluo-4AM/Pluronic Acid Mixture. 2 mM Fluo-4AM ester stock in DMSO (Molecular Probes F-14202) Concentration of 2 μM in buffer for a final concentration of 1 μM in Assay. 20% Pluronic Acid Solution stock, with a concentration of 0.04% in Buffer, 0.02% in Assay.
65 μl of 2 mM Fluo-4AM are mixed with 130 μL of 20% Pluronic Acid. The resulting solution and 650 μL FBS is added to the assay buffer for a total volume of 65 mL. Positive Controls: 4-Br-A23187: 10 mM in DMSO; final concentration 10 μM. Acetylcholine: 10 mM in water, working stock at both 20 μM and 30 μM in assay buffer, final concentration of 10 μM. This is used to check the maximum stimulation of the CHOK1/hM1 cells. 20 μM (2×) acetylcholine is added in the preincubation part of the assay, and the 30 μM (3×) stock is added in the second part. (EC20) Acetylcholine: 10 mM in water, working stock of 9 nM (3×), and final concentration in assay is 3 nM. This is used after the preincubation with test compounds. Addition of the EC20 Acetylcholine to each well with a test compound will ascertain any modulator activity. 24 wells contain 3 nM Acetylcholine alone as a control.
Determining Activity of Putative Compounds:
Screening Plate: Compounds are titrated in 96-well plates (columns 2-11), 100% DMSO, started at a concentration of 15 mM (150× stock concentration), and 3-fold serial dilutions using Genesis Freedom200 System. Four 96-well plates are combined into a 384-well plate using Mosquito Nanolitre Pipetting System by transferring 1 μl of serial diluted compounds to each well, and 1 mM acetylcholine (100× stock concentration) were added as a control. Using Temo, 49 μl assay buffer is added to each well of the 384-well plate right before assay.
In a 96-well Whatman 2 ml Uniplate, 9 nM Acetylcholine (3×) is pipetted into wells corresponding to the screening compounds and into control wells. The 30 μM acetylcholine control (3×) is added into control wells and the 3× agonist plate is transferred into a 384-well plate.
Cells are washed three times with 100 μL of buffer, leaving 30 μL of buffer in each well. Using Multimek, 30 μL of Dye Loading Buffer is added into each well and incubated at 37° C., 5% CO2 for up to one hr.
After 60 min, the cells are washed three times with 100 μL of buffer, leaving 30 μL of buffer in each well. The cell plate, screening plate, and agonist addition plates are placed on the platform in the FLIPR and the door is closed. A signal test to check background fluorescence and basal fluorescence signal is performed. Laser intensity is adjusted if necessary. […]

Take `O=C(O)c1cc(CN2CCc3ccccc3C2c2ccncc2)c2ccccn2c1=O` (centres unmarked) [Example 17]: the EC50 was found to be 0.084 µM.

With `O=C(O)c1cc(CN2Cc3ccccc3C[C@@H]2CO)c2ccccn2c1=O` [Example 7], the EC50 worked out at 8.98 µM.

As to `O=C(O)c1cc(CN2CCc3cnccc3C2)c2ccccn2c1=O` [Example 54], the EC50 is 0.9 µM.

Consider `O=C(O)c1cc(CN2CCn3c(-c4ccccc4)cnc3C2)c2ccccn2c1=O` [Example 69], for which the EC50 amounted to 4.18 µM.

Consider `N#Cc1ccc2c(c1)CCN(Cc1cc(C(=O)O)c(=O)n3ccccc13)C2` [Example 88, 1-[(6-cyano-3,4-dihydroisoquinolin-2(1H)-yl)methyl]-4-oxo-4H-quinolizine-3-carboxylic acid], for which the EC50 amounted to 12 µM.

In the case of `O=C(O)c1cc(CN2CCc3cc(Cl)ccc3C2)c2ccccn2c1=O` [Example 1, 1-[(6-chloro-3,4-dihydroisoquinolin-2(1H)-yl)methyl]-4-oxo-4H-quinolizine-3-carboxylic acid], the EC50 was 0.51 µM.

On to `O=C(O)c1cc(CN2CCc3cc(-c4ccccc4)ccc3C2)c2ccccn2c1=O` [Example 87, 4-Oxo-1-[(6-phenyl-3,4-dihydroisoquinolin-2(1H)-yl)methyl]-4H-quinolizine-3-carboxylic acid], for which the EC50 worked out at 6.2 µM.

For the compound `Cc1ccc2c(c1)CCN(Cc1cc(C(=O)O)c(=O)n3ccccc13)C2` [Example 89, 1-[(6-methyl-3,4-dihydroisoquinolin-2(1H)-yl)methyl]-4-oxo-4H-quinolizine-3-carboxylic acid], the EC50 was determined as 6.7 µM.

For `O=C(O)c1cc(CN2CCc3ccccc3C2c2ccccc2F)c2ccccn2c1=O` (centres unmarked) [Example 18], the EC50 is 0.15 µM.

As for `CCOC(=O)C1c2ccccc2CCN1Cc1cc(C(=O)O)c(=O)n2ccccc12` (centres unmarked) [Example 11], the EC50 was 0.286 µM.

Take `O=C(O)c1cc(CN2CCc3ccccc3C2)c2ccccn2c1=O` [Example 6]: the EC50 was found to be 1.72 µM.
